Measurements as given in patent US7598293B2, “Compounds and their use in medicine, process for their preparation and pharmaceutical compositions containing them” (Dr. Reddy's Laboratories, Inc., priority 2001, dated 2009).

Tests used:
[1] = tested on: Swiss albino mice; assay: Plasma triglyceride and total cholesterol lowering activity in Swiss albino mice; assay type: in vivo, mouse; conditions: results after 6 days
Experimental: c) Plasma triglyceride and total cholesterol lowering activity in Swiss albino mice Male Swiss albino mice (SAM) were obtained from NIN and housed in DRF animal house. All these animals are maintained under 12 hour light and dark cycle at 25±1° C. Animals are given standard laboratory chow (NIN, Hyderabad, India) and water, ad libitum. SAM of 20-25 g body weight range and Guinea pigs of 500-700 g body weight range are used (Oliver, P., Plancke, M. O., Marzin, D., Clavey, V., Sauzieres, J and Fruchart, J. C. Effects of fenofibrate, gemfibrozil and nicotinic acid on plasma lipoprotein levels in normal and hyperlipidemic mice. Atherosclerosis. 1988. 70: 107-114).
The test compounds can be administered orally to Swiss albino mice at 0.3 to 30 mg/kg/day dose for 6 days. Control mice are treated with vehicle (0.25% Carboxymethylcellulose; dose 10 ml/kg). The test compounds are administered orally to Guinea pigs at 0.3 to 30 mg/kg/day dose for 6 days. Control animals are treated with vehicle (0.25% Carboxymethylcellulose; dose 5 ml/kg). The blood samples can bc collected in fed state 1 hour after drug administration on 0 and 6 day of treatment. The blood can be collected from the retro-orbital sinus through heparinised capillary in EDTA containing tubes. After centrifugation, plasma sample was separated for triglyceride (Wieland, O. Methods of Enzymatic analysis. Bergermeyer, H. O., Ed., 1963. 211-214; Trinder, P. Ann. Clin. Biochem. 1969. 6: 24-27). Measurement of plasma triglyceride is done using commercial kits (Dr. Reddy's Diagnostic Division, Hyderabad, India).
(§1) 1. Percent reduction in Blood sugar/triglycerides/total cholesterol will be calculated according to the formula:
(§2) [formula] • OC=Zero day control group value • OT=Zero day treated group value • TC=Test day control group value • TT=Test day treated group value

[2] = tested on: cholesterol fed Syrian Hamsters; assay: Body weight reducing effect in cholesterol fed hamsters; assay type: in vivo, hamster; conditions: 3 mg/kg oral
Experimental: d) Body weight reducing effect in cholesterol fed hamsters: Male Syrian Hamsters are procured from NIN, Hyderabad, India. Animals are housed at DRF animal house under 12 hour light and dark cycle at 25±1° C. with free access to food and water. Animals are maintained with 1% cholesterol containing standard laboratory chow (NIN) from the day of treatment.
The test compounds can be administered orally at 1 to 30 mg/kg/day dose for 15 days. Control group animals are treated with vehicle (Mill Q water, dose 10 ml/kg/day). Body weights are measured on every 3rd day.
as §1, §2

[3] = tested on: C57BL/KsJ-db/db mice; assay: Efficacy in genetic models: blood sugar and triglyceride lowering in db/db mice; assay type: in vivo, mouse; conditions: 3 mg/kg oral, results after 6 days
Source text: a) Efficacy in Genetic Models Mutation in colonies of laboratory animals and different sensitivities to dietary regimens has made the development of animal models with non-insulin dependent diabetes and hyperlipidemia associated with obesity and insulin resistance possible. Genetic models such as db/db and ob/ob (Diabetes, (1982) 31(1): 1-6) mice and zucker fa/fa rats have been developed by the various laboratories for understanding the pathophysiology of disease and testing the efficacy of new antidiabetic compounds (Diabetes, (1983) 32: 830-838; Annu. Rep. Sankyo Res. Lab. (1994). 46: 1-57). The homozygous animals, C57 BL/KsJ-db/db mice developed by Jackson Laboratory, US, are obese, hyperglycemic, hyperinsulinemic and insulin resistant (J. Clin. Invest., (1990) 85: 962-967), whereas heterozygous are lean and normoglycemic. In db/db model, mouse progressively develops insulinopenia with age, a feature commonly observed in late stages of human type II diabetes when blood sugar levels are insufficiently controlled. The state of pancreas and its course vary according to the models. Since this model resembles that of type II diabetes mellitus, the compounds of the present invention will be tested for blood sugar and triglycerides lowering activities.
Male C57BL/KsJ-db/db mice of 8 to 14 weeks age, having body weight range of 35 to 60 grams, bred at Dr. Reddy's Research Foundation (DRF) animal house, were used in the experiment. The mice are provided with standard feed (National Institute of Nutrition (NIN), Hyderabad, India) and acidified water, ad libitum. The animals having more than 350 mg/dl blood sugar will be used for testing. The number of animals in each group will be 4.
Test compounds are suspended on 0.25% carboxymethyl cellulose and administered to test group at a dose of 0.1 mg to 30 mg/kg through oral gavage daily for 6 days. The control group receives vehicle (dose 10 ml/kg). On 6th day the blood samples will be collected one hour after administration of test compounds/vehicle for assessing the biological activity.
The random blood sugar and triglyceride levels can be measured by collecting blood (100 μl) through orbital sinus, using heparinised capillary in tubes containing EDTA which was centrifuged to obtain plasma. The plasma glucose and triglyceride levels can be measured spectrometrically, by glucose oxidase and glycerol-3-PO4 oxidase/peroxidase enzyme (Dr. Reddy's Lab. Diagnostic Division Kits, Hyderabad, India) methods respectively.
The blood sugar and triglycerides lowering activities of the test compound are calculated according to the formula.
as §1, §2

## 2-Ethoxy-3-[4-(4-methanesulfonyloxybenzylamino)phenyl]propionic acid arginine salt [Example 38]
[1]; 1 mg/kg oral
  Triglyceride Lowering (%): 41%

## CCOC(Cc1ccc(NC(=O)OCCCc2ccc(OS(C)(=O)=O)cc2)cc1)C(=O)O (centres unmarked) [Example 16, 2-Ethoxy-3-[4-{3-(4-methanesulfonyloxyphenyl)propyloxycarbonylamino}phenyl]propionic acid]
[2]
  Reduction in Body weight (%): 19%
  Reduction in Total Cholesterol (%): 63%
  Reduction in Triglyceride (%): 77%
[3]
  Reduction in Blood Glucose Level (%): 15%
  Triglyceride Lowering (%): 39%

## CCOC(Cc1ccc(NCCCc2ccc(OS(=O)(=O)c3ccc(C)cc3)cc2)cc1)C(=O)O (centres unmarked) [Example 19, 2-ethoxy-3-[4-{3-(4-(toluene-4-sulfonyloxy)phenyl)propylamino}phenyl]propionate]
[1]; 1 mg/kg oral
  Triglyceride Lowering (%): 39%

## CCOC(Cc1ccc(NCCCc2ccc(N(C(=O)OC(C)(C)C)S(C)(=O)=O)cc2)cc1)C(=O)O (centres unmarked) [Example 30]
[1]; 3 mg/kg oral
  Triglyceride Lowering (%): 41%
